Values quoted from earlier work as cited in patent US10022309B2, “Composition, comprising hydrofluoric acid, for inhibiting dental erosion” ([…], priority 2004, dated 2018).

What was measured:
[1] = 24 h treatment (1.2% NaF or Duraphat varnish); then cola-drink pH 2.6 for 4 min
[2] = pre-treatment with 1% neutral NaF or 4% TiF4; 50 mM citric acid with calcium and phosphate, pH 3, 30 min; without treatment 4.5 um
[3] = aqueous solution

SMILES	hardness of enamel compared with untreated control [1]	mean lesion depth [2] [um]	pKa [3]
[F-].[Na+] [NaF, sodium fluoride]	improved	3.5	
F [hydrofluoric acid]			3.45
[F][Ti]([F])([F])[F] [TiF4, titanium tetrafluoride]		2.7	
